Data on four compounds can be found in patent publication EP0745083B1, “2-HETEROARYL-5,11-DIHYDRO-6H-DIPYRIDO [3,2-b:2',3'-e][1,4]DIAZEPINES AND THEIR USE IN THE PREVENTION OR TREATMENT OF HIV INFECTION” (BOEHRINGER INGELHEIM PHARMACEUTICALS INC., priority 1994, dated 1995).

For test [1], the target named is T1, HIV-1 RT wild type (WT) enzyme (Human immunodeficiency virus type 1 group M subtype B, UniProt P03367).
T1 construct: Reverse transcriptase enzyme from the LAV strain of Human Immunodeficiency Virus (HIV-1) (1) was isolated from the bacterial strain JM109; made in house; host or cells: E. coli JM109 (clone pBRTprt1+ in vector pIBI21, lac promoter)
In words: Reverse Transcriptase (RT) Assay, wild type enzyme (RNA-dependent DNA polymerase activity). It counts as biochemical, Human Immunodeficiency Virus (HIV-1). The note with it: 1 µM compound, read-out: Reverse Transciptase Assay % inhibition (1 µM) WT.

For test [2], the system named is HTLV-IIIB strain of HIV-1. Description: Syncytia (human T-cell culture) assay. It counts as cell-based. The conditions noted are these: Human immunodeficiency virus 1, IIIB, 96 h; c8166 cells; read four days after virus challenge. The procedure: In order to confirm that compounds which are active in the RT Assay also have the ability to inhibit HIV replication in a living system, compounds according to the invention were also tested in the human T-Cell Culture (Syncytia) Assay described below.
Formation of syncytia is a feature of in vitro cultures of CD4+ T-cells infected with HIV-1. In this assay, T-cells are treated with a putative replication inhibiting compound and then infected with HIV-1. After incubation, the culture is checked for the formation of syncytia. The absence or reduction in the number of syncytia is used as a measure of the test compound's ability to inhibit HIV replication.
The target cells, designated c8166, are a subclone of human lymphoma cells of T-cell origin and are established at an initial density of 5x10^4 per 100 ul in RPMI 1640 (+ 10% fetal bovine serum) culture medium in 96 well flat bottom plates. A selected amount of test compound, dissolved in DMSO, is included. After 24 hours, 50-100 TCID50's (the dose that results in induced effect in 50% of test cultures) of the HTLV-IIIB strain of HIV-1 (2) are inoculated into each culture. Control cultures receive compound or virus only. Four days after virus challenge, cultures are visually examined for the frequency and distribution of virus-induced giant cell syncytia. The percent inhibition by the test compound is determined by comparison with control values. Confirmation of the presence or absence of virus replication is accomplished by harvesting the cell free culture fluids from all experimental groups to determine the presence or absence of infectious progeny through the induction of syncytia formation in secondary human T-cell cultures after 3 days.

The next test concerns the target T2, HIV-1 RT Y188L (Human immunodeficiency virus type 1 group M subtype B, UniProt P03367, Y787L).
T2 construct: effective against the reverse transcriptase of many mutant viruses; made in house
Description: Reverse Transcriptase (RT) Assay, Y188L mutant enzyme. The conditions noted are these: 1 µM compound. The test is classed as biochemical, Human Immunodeficiency Virus (HIV-1).

The inhibition is the share of the control response that was lost under treatment. The term IC50 denotes the midpoint of a concentration-inhibition curve. Read a high IC50 as weaker potency in that assay. On to `CCN1c2ncccc2C(=O)N(C)c2ccc(-c3cc[nH]c3)nc21` [Example 12, 5,11-Dihydro-11-ethyl-5-methyl-2-(3-pyrrolyl)-6H-dipyrido[3,2-b:2',3'-e][1,4]diazepin-6-one], for which the inhibition at 1 µM in test [1] stood at 95%. For the same compound, the IC50 in test [2] was determined as 40 nM.

Turning to `CN1C(=O)c2cccnc2N(C2CC2)c2nc(-c3cc[nH]c3)ccc21` [Example 25, 11-Cyclopropyl-5,11-dihydro-5-methyl-2-(3-pyrrolyl)-6H-dipyrido[3,2-b:2',3'-e][1,4]diazepin-6-one], the “Reverse Transciptase Assay % inhibition (1 µM) Y188L” value at HIV-1 RT Y188L came out at 80%. In addition, the inhibition at 1 µM in test [1] amounted to 92%. In test [2], this compound displayed an IC50 of 80000 nM.

With `CN1C(=O)c2cccnc2N(C2CC2)c2nc(-c3cn[nH]c3)ccc21` [Example 6, 5,11-Dihydro-5-methyl-11-c-propyl-2-(4-pyrazolyl)-6H-dipyrido[3,2-b:2',3'-e][1,4]diazepin-6-one], on HIV-1 RT Y188L, the “Reverse Transciptase Assay % inhibition (1 µM) Y188L” value worked out at 84%. In test [1], the inhibition at 1 µM stood at 94%. This compound yielded an IC50 in test [2] of 10 nM.

Consider `CCN1c2ncccc2C(=O)N(C)c2ccc(-c3cn[nH]c3)nc21` [Example 1, 5,11-Dihydro-11-ethyl-5-methyl-2-(4-pyrazolyl)-6H-dipyrido[3,2-b:2'3'-e][1,4]diazepin-6-one], for which the “Reverse Transciptase Assay % inhibition (1 µM) Y188L” value at HIV-1 RT Y188L (1 µM) was found to be 77%. Moreover, the inhibition at 1 µM in test [1] is 97%. Further, the IC50 in test [2] was found to be 40 nM.
